Numbered stars: 1 amine (or outer) side, 2 acyl side, 3 side chain; on linkers, the order of the positions; unused ones are H or OH. Bridge positions count the residues as written; N and C are the ends. Square brackets hold non-standard residues; d marks the D form. Peptide text beside a SMILES is read from it. X1 = CC(C)CCCCCCCCC[C@H](CC(=O)[*:1])O[*:2]
Test system: Trichophyton mentagrophytes
Assay type: cell-based

**Q.** With CC(C)CCCCCCCCC[C@@H]1CC(=O)N[C@@H](CCC(=O)O)C(=O)N[C@@H](CC(C)C)C(=O)N[C@H](CC(C)C)C(=O)N[C@@H](C(C)C)C(=O)N[C@@H](CC(=O)O)C(=O)N[C@H](CC(C)C)C(=O)N[C@@H](CC(C)C)C(=O)O1 [surfactin] (EL[dL]VD[dL]L; linker N-C via X1) as the compound, how does the “antifungal activity (growth inhibition of test microorganism)” value read?
**A.** Its value is “weaker than iturin A, but slight inhibitory activities”.
